# Patent publication US20190211317A1, “PEPTIDES AND NANOPARTICLES FOR INTRACELLULAR DELIVERY OF GENOME-EDITING MOLECULES” (Aadigen, LLC, priority 2016, published 2019)
# “And” between values parts separate entries of the source, which are not always exact repeats. Identical values can stand only once. Non-standard residues stand in square brackets, D forms with d. Residues, ends and D or L forms follow the SMILES beside them. βAla = NCCC(=O)O
# Key:
# [1] = test system: endogenous EMX1 gene in U2OS, HEPG2, K562 cells and primary human fibroblasts; assay: EMX1 editing from CPP delivery of CAS9 protein/gRNA (T7E1); type: cell-based; details: each of the cell types tested; 2.5 μg/5 μg CAS9/gRNA
# Method: CPP/CAS9/gRNA complexes were prepared by mixing preloaded CAS9/gRNA complexes (2.5 μg/5 μg CAS9/gRNA) with CPP peptides at a 20:1 molar ratio of CPP to cargo and incubating for 30 min at 37° C. prior to cell transfection. Cells were transfected according to the protocols described in Example 13a, and RNAiMAX-mediated delivery (Invitrogen Thermo Fisher France) was used as a control. EMX1 gene editing was analyzed at day 3 and day 6 by T7E1 assay and quantified using a Fragment Analyzer System.
# [2] = Particle size, polydispersity and zeta potential with different cargoes (Zetasizer NANO ZS P); type: physicochemical; details: 20:1; for formation of stable nanoparticles: with CAS9-mRNA and CAS9-mRNA/gRNA complex
# Method: The CPP/CAS9-protein, CPP/CAS9-protein/sgRNA, CPP/CAS9-mRNA, CPP/CAS-mRNA/sgRNA particles were characterized; the mean size, polydispersity, and zeta potential were measured with a Zetasizer NANO ZS P apparatus (Malvern Ltd).
# The mean size and the polydispersity of the CCP/cargo complexes were determined at 25° C. for 5 min per measurement and zeta potential was measured with a Zetasizer NANO ZS P apparatus (Malvern Ltd).
# [3] = test system: U2OS and HEPG2 cell lines and primary human fibroblasts; assay: CAS9 protein expression after CPP delivery of CAS9-expressing plasmid (ELISA); type: cell-based; details: day 6
# Method: CPP/plasmid complexes were prepared by mixing 0.5 μg of a CAS9-expressing plasmid (Addgene MLM3639-Plasmid #42252) with CPP at a 20:1 molar ratio of CPP:cargo and incubating for 30 min at 37° C. prior to cell transfection. Cells were transfected according to the protocols for adherent and suspension cells described in Example 13a. Lipofectamine 2000 was used as lipid-based delivery control. CAS9 protein expression level was analyzed at multiple time points over a period of 10 days as determined by ELISA on protein extracts using antibodies against CRISPR/Cas9 obtained from Diagenode (Diagenode cat. No. C15200223) and ABCAM (clone 7A9-ab191468).
# [4] = test system: endogenous EMX1 gene in primary human T cells; assay: EMX1 editing in primary human T cells with CAS9 mRNA, protein or plasmid plus gRNA (T7E1); type: cell-based
# Method: CPP/CAS9 mRNA/gRNA complexes were formed by mixing the CAS9 mRNA (0.5 μg) and gRNA (5 μg) with CPP at a 20:1 molar ratio of CPP to nucleic acid (mRNA+gRNA) and incubating for 30 min at 37° C. prior to cell transfection. CPP/plasmid/gRNA complexes were formed by mixing CAS9 expressing plasmid (Addgene MLM3639-Plasmid #42252) (0.5 μg) and gRNA (5 μg) with CPP at a 20:1 molar ratio of CPP to nucleic acid (plasmid+gRNA) and incubating for 30 min at 37° C. prior to cell transfection. CPP/CAS9/gRNA complexes were formed by mixing preloaded CAS9/gRNA complexes (2.5 μg/5 μg CAS9/gRNA) with CPP at a 20:1 molar ratio of CPP to complex and incubating for 30 min at 37° C. prior to cell transfection.
# T cells were transfected according to the protocol for suspension cells described in Example 13a. Lipofectamine 2000- and RNAiMAX-mediated delivery methods (Invitrogen Thermo Fisher France) were included as controls. EMX1 gene editing was analyzed at day 3, day 6, and day 10 by T7E1 assay and quantified using a Fragment Analyzer System.
# [5] = test system: U2OS, HEPG2, K562 cells and primary human fibroblasts; assay: CAS9 protein expression after CPP delivery of CAS9 mRNA (ELISA); type: cell-based; details: day 3
# Method: CPP/CAS9 mRNA complexes were formed by mixing the CAS9 mRNA (0.5 μg) with CPP at a 20:1 molar ratio of CPP:CAS9 mRNA and incubating for 30 min at 37° C. prior to cell transfection. Cells were transfected according to optimized protocols for either adherent or suspension cell lines.
# Human primary fibroblasts were freshly obtained and grown in flasks pre-coated with a gelatin-based coating solution and incubated in Culture Complete Growth Medium for 3 days before expansion and treatment. U2OS cells were cultured in Dulbecco's Modified Eagle's Medium (DMEM), supplemented with 2 mM glutamine, 1% antibiotics (streptomycin 10,000 μg/mL, penicillin, 10,000 IU/mL) and 10% (w/v) foetal calf serum (FCS), at 37° C. in a humidified atmosphere containing 5% CO2. 35 mm dishes seeded with 150,000 cells the day prior to transfection were grown to 50-60% confluence and set up to be at about 70% confluences at the time of transfection. Before transfection, cells were washed with DMEM (2×) followed by PBS (1×). Cells were then overlaid with 0.2 ml of complex solution (16 μl CPP/Cargo complex in water+184 μl OPTiMEM without antibiotics), mixed gently, and incubated for 10 min at 37° C. 0.8 mL of fresh OPTiMEM or DMEM was then added and cells were incubated for 20 min at 37° C. 2 mL of complete OPTiMEM (high glucose) or DMEM containing 11.4% FCS was then added in order to reach a final FCS concentration of 10%, without removing the overlay of CPP/Cargo complexes. Cells were returned to the incubator (37° C., 5% CO2) and assayed at 72 hours post transfection.
# K562 and HEpG2 cells were set up to be at about 70% confluence at the time of transfection. The cells were maintained in high glucose DMEM media with 10% serum. Before transfection, cells were harvested by centrifugation, then washed with DMEM (2×) followed by PBS (1×). Cells were then resuspended in 0.2 ml of complex solution (16 μl CPP/Cargo complex in water+184 μl OPTiMEM without antibiotics), mixed gently, and incubated for 10 min at 37° C. 0.8 mL of fresh OPTiMEM was then added and cells were incubated for 20 min at 37° C. 2 mL of complete OPTiMEM (high glucose) containing 11.4% FCS was then added in order to reach a final FCS concentration of 10%, without removing the overlay of CPP/Cargo complexes. Cells were returned to the incubator (37° C., 5% CO2) and assayed at 72 hours post transfection.
# RNAiMAX lipid-based delivery (Invitrogen Thermo Fisher France) was used as a control and transfections were performed following the manufacturer's instructions. CAS9 expression level was analyzed at multiple time points over a period of 10 days as determined by ELISA on protein extracts using antibodies against CRISPR/Cas9 obtained from Diagenode (Diagenode cat. No. C15200223) and ABCAM (clone 7A9-ab191468).
# [6] = test system: Swiss mice; assay: In vivo delivery of CAS9 mRNA by three CPPs: CAS9 expression in tissues (ELISA); design: species or system mouse; details: for ELISA signal for CAS9 protein expression: day 3 and day 6, CAS9 mRNA 5 μg i.v., 20:1; for CAS9 protein expression: other tissues examined
# Method: Free CAS9 mRNA in physiological buffer was injected as a control.
# At day 3, day 6, and day 10 following injection, animals were sacrificed and tissues including lung, liver, brain, kidney, heart, spleen, blood, pancreas, muscle, bone marrow, and intestine were collected. Tissues were homogenized and CAS9 protein levels in protein extracts were analyzed by ELISA using an antibody against CRISPR/Cas9 (SBI clone 7A9).
# [7] = test system: PCSK9; assay: In vivo CAS9 mRNA/gRNA targeting PCSK9: serum PCSK9 (ELISA); design: species or system mouse
# Method: Polyadenylated and capped CAS9 mRNA was obtained from ThermoFisher, and gRNA (5 μg) targeting PCSK9 Exon 1 was obtained from Eurogentec. […] Free CAS9 mRNA/gRNA was injected as a control.
# Blood samples were collected by saphenous vein bleeds at multiple time points (day 3, 6, 10, and 21), collecting no more than 100 μl or 10% of total blood volume per week. Serum levels of PCSK9 were determined by ELISA using the Mouse Proprotein Convertase 9/PCSK9 Quantikine ELISA Kit (MPC-900, R&DSystems).
# [8] = test system: primary human T cells; assay: CAS9 protein expression in primary human T cells after CAS9 mRNA or plasmid delivery (ELISA); type: cell-based; details: day 3
# Method: T cells were isolated from PBMCs using anti-CD3/anti-CD28 antibodies bound to paramagnetic beads (Dynabeads ClinExVivo CD3/CD28, Invitrogen) at a ratio of 3:1 (beads:cells). The cells and beads were co-incubated for 2 hours at room temperature and CD3^+ cell enrichment was performed using Dynal ClinExVIVO MPC magnet (Thermo Fisher). The anti-CD3/anti-CD28 paramagnetic beads were removed, washed and concentrated. Cells in the CD3^+ fraction were resuspended in activation media at a concentration of 1×10^6 cells/ml with AIM-V medium (Thermo Fishers) supplemented with 10% fetal calf serum, 300 IU/ml IL2 and 50 ng/ml OKT3 (MuromonAB-CD3) for two days.
# CPP/CAS9 complexes were formed by mixing the CAS9 mRNA (0.5 μg) with CPP at a 20:1 molar ratio of CPP:CAS9 mRNA and incubating for 30 min at 37° C. prior to cell transfection. CPP/CAS9-expressing plasmid complexes were formed by mixing the CAS9-expressing plasmid (Addgene MLM3639-Plasmid #42252) (0.5 μg) with CPP at a 20:1 molar ratio of CPP:plasmid and incubating for 30 min at 37° C. prior to cell transfection.
# Cells were transfected according to the protocol for suspension cells described in Example 13a. RNAiMAX and lipofectamine 2000 lipid-based delivery methods (Invitrogen Thermo Fisher France) were used as controls, and transfections were performed following the manufacturer's instructions. CAS9 protein expression level was analyzed at multiple time points over a period of 10 days as determine by ELISA on protein extracts using antibodies against CRISPR/Cas9 obtained from Diagenode (Diagenode cat. No. C15200223) and ABCAM (clone 7A9-ab191468).
# [9] = test system: EGFP reporter gene in EGFP-U2OS, EGFP-HEK, EGFP-JURKAT cells; assay: EGFP reporter gene disruption from CPP delivery of CAS9:sgRNA (flow cytometry); type: cell-based, human; details: for reduction of EGFP-positive cells: EGFP-JURKAT; for decrease in EGFP expression: CAS9:gRNA 50 nM, CPP:cargo 20:1; for reduction of EGFP-expressing cells / loss of EGFP expression: JURKAT; for reduction of EGFP-expressing cells / loss of EGFP expression / loss of EGFP expression: 1 nM CAS9:gRNA; for loss of EGFP expression: both cell lines (U2OS, HEK);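 on all read-outs here: cells carrying one integrated EGFP reporter received peptide-complexed CAS9 preloaded 1:1 with EGFP sgRNA, cultured 72 h, then EGFP level read by flow cytometry, lipofectamine 2000 and RNAiMAX as positive controls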
# Method: Efficacy of CPP-mediated delivery was quantified using a well-established CAS9-induced gene disruption method (Fu et al, 2013, supra), by targeting a specific site in the exogenous EGFP gene reporter in three human cell lines expressing EGFP (GFP-U2OS, EGFP-HEK, EGFP-JURKAT).
# Stock solutions of amphipathic peptides were prepared at 1 mg/mL in distilled water and sonicated for 10 min. CAS9 protein was preloaded with purified EGFP sgRNA at a molar ratio of 1:1 and incubated for 10 min prior to forming complexes with the peptides. Preloaded CAS9/gRNA complexes (10 nM, 25 nM, and 50 nM) were mixed with CPPs at 5:1, 10:1 and 20:1 molar ratios of CPP to cargo and incubated for 30 min at 37° C. prior to cell transfection.
# Cell line containing a single integrated EGFP reporter gene (GFP-U2OS, EGFP-HEK and EGFP-JURKAT) were cultured in Dulbecco's Modified Eagle's Medium (DMEM), supplemented with 2 mM glutamine, 1% antibiotics (streptomycin 10,000 μg/mL, penicillin, 10,000 IU/mL) and 10% (w/v) foetal calf serum (FCS) at 37° C. in a humidified atmosphere containing 5% CO2. A total of 150,000 cells seeded in a 35 mm dish the day prior to transfection were grown to 50-60% confluence and overlaid with 200 μl of preformed complexes, incubated for 3-5 min, then 400 μl of DMEM was added. After 30 min incubation at 37° C., 1 mL of fresh DMEM containing 16% FCS was added to reach a final FCS concentration of 10%, without removing the overlay of CPP/CAS9-gRNA complexes. Cells were returned to the incubator for 72 hours.
# CAS9-induced double-strand break formation was analyzed using flow cytometry by monitoring level of EGFP expression. […] Both lipofectamine 2000 and RNAiMAX delivery methods were used as positive controls.
# [10] = test system: endogenous EMX1 gene in U2OS, HEPG2, K562 cells and primary human fibroblasts; assay: EMX1 editing from CPP delivery of CAS9 mRNA/gRNA (T7E1); type: cell-based
# Method: CPP/CAS9 mRNA/gRNA complexes were formed by mixing the CAS9 mRNA (0.5 μg) and gRNA (5 μg) with CPP at a 20:1 molar ratio of CPP:cargo and incubating for 30 min at 37° C. prior to cell transfection. Suspension and adherent cells were transfected according to the protocols described in Example 13a. RNAiMAX-mediated delivery (Invitrogen Thermo Fisher France) was used as a control. EMX1 gene editing was analyzed at day 3 and day 6 by T7E1 assay and quantified using a Fragment Analyzer System.
# [11] = test system: endogenous EMX1 and exogenous EGFP reporter genes in GFP-U2OS, EGFP-JURKAT cells; assay: Delivery of multiple RGEN/gRNA complexes: EMX1 and EGFP editing; type: cell-based, human
# Method: RNAiMAX delivery was used as positive control. Cells were treated as described previously and CAS9-induced NHEJ analyzed 72 hr after transfection. […] The deletion (indel) frequency in the EMX1 gene was quantified using the T7E1 assay and loss of EGFP expression was monitored by flow cytometry. Data for on-target mutations induced by RGEN/gRNA are reported as an average of 3 separate experiments.
# [12] = test system: endogenous EMX1 gene in U2OS, HEPG2 cells and primary human fibroblasts; assay: EMX1 editing from CPP delivery of CAS9-expressing plasmid and gRNA (T7E1); type: cell-based; details: the three cell types
# Method: EMX1-targeting gRNAs were prepared as described above. CPP/plasmid/gRNA complexes were prepared by mixing 0.5 μg of a CAS9-expressing plasmid (Addgene MLM3639-Plasmid #42252) and 5 μg gRNA with CPP at a 20:1 molar ratio of CPP to nucleic acid (plasmid+gRNA) and incubating for 30 min at 37° C. prior to cell transfection. Suspension and adherent cells were transfected according to the protocols described in Example 13a. Lipofectamine 2000- and RNAiMAX-mediated delivery methods (Invitrogen Thermo Fisher France) were used as controls. EMX1 gene editing was analyzed at day 3 and day 6 by T7E1 assay and quantified using a Fragment Analyzer System.
# [13] = CPP/CAS9 and CPP/CAS9:gRNA particle size, polydispersity, zeta potential (Zetasizer 4); type: physicochemical
# Method: The CPP/CAS9 and CPP/CAS9/sgRNA particles were further characterized; the mean size, polydispersity and zeta potential were measured with Zetasizer 4 apparatus (Malvern Ltd). […] The mean size and the polydispersity of the CCP/CAS9 and CCP/CAS9:gRNA complexes were determined at 25° C. for 3 min per measurement and zeta potential was measured with Zetasizer 4 apparatus (Malvern Ltd).
# [14] = test system: endogenous EMX1 gene in U2OS, JURKAT and K562 cells; assay: EMX1 gene editing from CPP delivery of CAS9/gRNA (T7E1 assay); type: cell-based, human
# Method: RNAiMAX delivery was used as a positive control as it was previously reported to show better results than Lipofectamine 2000 (Zuris et al., 2015, supra). […] Cells were returned to the incubator for 72 hours.
# [15] = with CAS9-mRNA and CAS9-mRNA/gRNA
# [16] = CAS9-expressing plasmid and gRNA, day 3
# [17] = day 1, CAS9 mRNA 5 μg/gRNA 5 μg single i.v.
smiles,measurement,setting,value
CC(C)C[C@H](NC(=O)CCN)C(=O)N[C@@H](Cc1c[nH]c2ccccc12)C(=O)N[C@@H](CCCNC(=N)N)C(=O)N[C@@H](C)C(=O)N[C@@H](CC(C)C)C(=O)N[C@@H](Cc1c[nH]c2ccccc12)C(=O)N[C@@H](CCCNC(=N)N)C(=O)N[C@@H](CC(C)C)C(=O)N[C@@H](Cc1c[nH]c2ccccc12)C(=O)N[C@@H](CCCNC(=N)N)C(=O)N[C@@H](CO)C(=O)N[C@@H](CC(C)C)C(=O)N[C@@H](Cc1c[nH]c2ccccc12)C(=O)N[C@@H](CCCNC(=N)N)C(=O)N[C@@H](CC(C)C)C(=O)N[C@@H](CC(C)C)C(=O)N[C@@H](Cc1c[nH]c2ccccc12)C(=O)N[C@@H](CCCCN)C(=O)N[C@@H](C)C(=O)O [VEPEP-6] (H-[βAla]LWRALWRLWRSLWRLLWKA-OH; N-terminus and C-terminus assumed),mean indel frequencies,[1],no significant EMX1 gene editing
same,formation of stable nanoparticles,[2],able to form stable nanoparticles
same,Mean diameter,[2]; [15],~100 nm
same,polydispersity index (PI),[2]; [15],0.2
same,ELISA signal for CAS9 protein expression,[3]; U2OS and HEPG2,about 4 times the background
same,ELISA signal for CAS9 protein expression,[3]; primary human fibroblasts,about 2 times the background
same,mean indel frequencies,[4]; [16],little to no EMX1 gene editing
same,mean indel frequencies,[4]; CAS9 protein/gRNA,little to no EMX1 gene editing
same,ELISA signal for CAS9 protein expression,"[5]; U2OS, K562, HepG2, CAS9 mRNA 0.5 μg",~30 times the background
same,ELISA signal for CAS9 protein expression,[5]; primary human fibroblasts,about 20 times the background
same,CAS9 expression,"[6]; day 10, brain",CAS9 expression was observed
same,CAS9 expression,"[6]; day 10, liver",CAS9 expression was observed
same,CAS9 expression,"[6]; day 10, lung",CAS9 expression was observed
same,ELISA signal for CAS9 protein expression,[6]; liver,> 15 times that of background
same,CAS9 expression,[6]; lung,about 8 times that of background
same,CAS9 protein expression,[6],Little to no increase
same,decrease of serum levels of PSCK9,[7]; [17],64%
same,decrease of serum levels of PSCK9,[7]; day 3,73%
same,decrease of serum levels of PSCK9,[7]; day 6,75%
same,decrease of serum levels of PSCK9,[7]; day 10,73%
same,decrease of serum levels of PSCK9,[7]; day 14,71%
same,decrease of serum levels of PSCK9,[7]; day 20,70%
same,ELISA signal for CAS9 protein expression,[8]; CAS9-expressing plasmid 0.5 μg,little to no CAS9 expression
same,ELISA signal for CAS9 protein expression,[8]; CAS9 mRNA 0.5 μg,~17 times the background
same,reduction of EGFP-positive cells,[9],no significant change
same,decrease in EGFP expression,[9]; HEK,30%
same,reduction of EGFP-expressing cells / loss of EGFP expression,[9],no change in EGFP expression
same,decrease in EGFP expression,[9]; U2OS,25%
same,loss of EGFP expression,[9],no change in EGFP expression
same,mean indel frequencies,[10],about 60%
CC(C)C[C@H](NC(=O)CCN)C(=O)N[C@@H](CCCNC(=N)N)C(=O)N[C@@H](Cc1c[nH]c2ccccc12)C(=O)N[C@@H](Cc1c[nH]c2ccccc12)C(=O)N[C@@H](CC(C)C)C(=O)N[C@@H](CCCNC(=N)N)C(=O)N[C@@H](Cc1c[nH]c2ccccc12)C(=O)N[C@@H](C)C(=O)N[C@@H](CO)C(=O)N[C@@H](CCCNC(=N)N)C(=O)N[C@@H](Cc1c[nH]c2ccccc12)C(=O)N[C@@H](Cc1ccccc1)C(=O)N[C@@H](CO)C(=O)N[C@@H](CCCNC(=N)N)C(=O)N[C@@H](Cc1c[nH]c2ccccc12)C(=O)N[C@@H](C)C(=O)N[C@@H](Cc1c[nH]c2ccccc12)C(=O)N[C@@H](Cc1c[nH]c2ccccc12)C(=O)N[C@@H](CCCNC(=N)N)C(=O)O [VEPEP-9],formation of stable nanoparticles,[2],able to form stable nanoparticles
same,Mean diameter,[2]; [15],~120 nm
same,mean particle size,[2]; with preloaded CAS9-protein/gRNA complex,210±20
same,mean indel frequencies,[4]; [16],about 30%
same,mean indel frequencies,[4]; CAS9 protein/gRNA,about 20%
same,Mean indel Frequency ± S.E.M,"[11]; JURKAT, EGFP",15 ± 8%
same,Mean indel Frequency ± S.E.M,"[11]; JURKAT, EMX1",10 ± 2%
same,Mean indel Frequency ± S.E.M,"[11]; U2OS, EGFP, 25 nM each complex",32 ± 4%
same,Mean indel Frequency ± S.E.M,"[11]; U2OS, EMX1",31 ± 5%
same,CAS9 expression,"[6]; day 10, brain",CAS9 expression was observed
same,CAS9 expression,"[6]; day 10, liver",CAS9 expression was observed
same,CAS9 expression,"[6]; day 10, lymph node",CAS9 expression was observed
same,ELISA signal for CAS9 protein expression,[6]; liver,> 8 times that of background
same,CAS9 protein expression,[6],Little to no increase
same,mean indel frequencies,[12],35-40%
same,PI,"[13]; Cas9:gRNA, molar ratio 20/1",0.58 and 0.58 ± 0.1
same,Size,"[13]; Cas9:gRNA, molar ratio 20/1",170±10 nm
same,zeta,"[13]; Cas9:gRNA, molar ratio 20/1",39 ± 8 MV
same,Pt,"[13]; Cas9, molar ratio 20/1",0.45 ± 0.1
same,Size,"[13]; Cas9, molar ratio 20/1",280 ± 20 nm
same,zeta,"[13]; Cas9, molar ratio 20/1",32 ± 5 mV
same,formation of stable particles with preloaded CAS9:gRNA complex,[13]; molar ratio 10:1,neither CADY nor VEPEP-9 formed stable particles
same,decrease of serum levels of PSCK9,[7]; [17],13%
same,decrease of serum levels of PSCK9,[7]; day 3,29%
same,decrease of serum levels of PSCK9,[7]; day 6,31%
same,decrease of serum levels of PSCK9,[7]; day 10,27%
same,decrease of serum levels of PSCK9,[7]; day 14,25%
same,decrease of serum levels of PSCK9,[7]; day 20,24%
same,ELISA signal for CAS9 protein expression,[8]; CAS9-expressing plasmid 0.5 μg,about 4 times the background
same,ELISA signal for CAS9 protein expression,[8]; CAS9 mRNA 0.5 μg,about 4 times the background
same,Mean indel Frequency ± S.E.M,"[14]; JURICAT, CAS9/sgRNA 25 nM",21% and 21 ± 7%
same,Mean indel Frequency ± S.E.M,"[14]; JURKAT, CAS9/sgRNA 50 nM",21 ± 5%
same,Mean indel Frequency ± S.E.M,"[14]; K562, CAS9/sgRNA 25 nM",29% and 29 ± 7%
same,Mean indel Frequency ± S.E.M,"[14]; K562, CAS9/sgRNA 50 nM",25 ± 5%
same,Mean indel Frequency ± S.E.M,"[14]; U2OS, CAS9/sgRNA 25 nM, 20:1",27% and 27 ± 3%
same,Mean indel Frequency ± S.E.M,"[14]; U2OS, CAS9/sgRNA 50 nM",30 ± 6%
same,reduction of EGFP-positive cells,[9],22%
same,decrease in EGFP expression,[9]; HEK,58%
same,reduction of EGFP-expressing cells / loss of EGFP expression,[9],no change in EGFP expression
same,decrease in EGFP expression,[9]; U2OS,55%
same,loss of EGFP expression,[9],5%
same,mean indel frequencies,[10],about 10%
